Data published in patent US9938562B2, “Naphthalene derived chromogenic enzyme substrates” (Glycosynth Limited, priority 2013, dated 2018).
Counter-ions that a name gives are not always drawn.

Key:
Assay type in all cases: cell-based
[1] = tested on: clinical isolates of E. coli; test: Glucuronide sensitivity screen, agar plates (CPS ID 3 or Columbia agar)
E. cloacae = test: Glucuronide screen, agar plates (CPS ID 3 or Columbia agar)
E. faecium NCTC 7171 = test: as above; details: E. faecium NCTC 7171, agar
E. faecalis NCTC 775 = test: as above; details: E. faecalis NCTC 775, agar
[2] = 100 E. coli strains, agar, 18 h incubation

O=C(O)[C@H]1O[C@@H](Oc2c[nH]c3cc(Cl)ccc23)[C@H](O)[C@@H](O)[C@@H]1O [Rose-β-D-glucuronide CHA salt, 6-chloro-3-indolyl β-D-glucuronide]
% Sensitivity [1]: 81%
Negative strains [1, 2]: 19
Positive strains [1, 2]: 81
Colour ([1]; E. coli 260262P, agar): Red
Colour ([1]; E. coli 260280Z, agar): Red
Colour ([1]; E. coli 260310H, agar): Red
Colour ([1]; E. coli 260313A, agar): −
Colour ([1]; E. coli 260316T, agar): −
Colour ([1]; E. coli 260327V, agar): Red
Colour ([1]; E. coli 260330Y, agar): Red
Colour ([1]; E. coli 260333P, agar): −
Colour ([1]; E. coli 260345F, agar): Red
Colour ([1]; E. coli 260348K, agar): Red
Colour ([1]; E. coli 260354W, agar): Red
Colour ([1]; E. coli 260364H, agar): −
Colour ([1]; E. coli 260370C, agar): Red
Colour ([1]; E. coli 260375E, agar): Red
Colour ([1]; E. coli 260390B, agar): −
Colour ([1]; E. coli 260396Z, agar): Red
Colour ([1]; E. coli 260398Q, agar): Red
Colour ([1]; E. coli 260399E, agar): Red
Colour ([1]; E. coli 260400N, agar): −
Colour ([1]; E. coli 260401Q, agar): Red
Colour ([1]; E. coli 260402H, agar): Red
Colour ([1]; E. coli 260404W, agar): Red
Colour ([1]; E. coli 260405P, agar): Red
Colour ([1]; E. coli 260406A, agar): −
Colour ([1]; E. coli 260406Y, agar): Red
Colour ([1]; E. coli 260407F, agar): Red
Colour ([1]; E. coli 260408C, agar): Red
Colour ([1]; E. coli 260411Z, agar): Red
Colour ([1]; E. coli 260412Q, agar): Red
Colour ([1]; E. coli 260414H, agar): Red
Colour ([1]; E. coli 260415Y, agar): Red
Colour ([1]; E. coli 260416W, agar): −
Colour ([1]; E. coli 260417P, agar): Red
Colour ([1]; E. coli 260422Y, agar): Red
Colour ([1]; E. coli 260424P, agar): Red
Colour ([1]; E. coli 260425A, agar): Red
Colour ([1]; E. coli 260426F, agar): Red
Colour ([1]; E. coli 260428T, agar): Red
Colour ([1]; E. coli 260431N, agar): Red
Colour ([1]; E. coli 260432E, agar): Red
Colour ([1]; E. coli 260433H, agar): Red
Colour ([1]; E. coli 260434Y, agar): Red
Colour ([1]; E. coli 260435W, agar): Red
Colour ([1]; E. coli 260436P, agar): Red
Colour ([1]; E. coli 260437A, agar): Tr. Red
Colour ([1]; E. coli 260438F, agar): Red
Colour ([1]; E. coli 260439C, agar): Red
Colour ([1]; E. coli 260440S, agar): Red
Colour ([1]; E. coli 260441G, agar): Red
Colour ([1]; E. coli 260458Y, agar): Red
Colour ([1]; E. coli 260459W, agar): Red
Colour ([1]; E. coli 260463D, agar): Red
Colour ([1]; E. coli 260464G, agar): Red
Colour ([1]; E. coli 260471B, agar): −
Colour ([1]; E. coli 260478N, agar): −
Colour ([1]; E. coli 260479Q, agar): Red
Colour ([1]; E. coli 260480M, agar): Red
Colour ([1]; E. coli 260481J, agar): Red
Colour ([1]; E. coli 260483R, agar): −
Colour ([1]; E. coli 260485D, agar): Red
Colour ([1]; E. coli 260486L, agar): Red
Colour ([1]; E. coli 260492J, agar): Red
Colour ([1]; E. coli 260494B, agar): Red
Colour ([1]; E. coli 260495R, agar): −
Colour ([1]; E. coli 260497D, agar): Red
Colour ([1]; E. coli 260502G, agar): Red
Colour ([1]; E. coli 260503Z, agar): Red
Colour ([1]; E. coli 260504N, agar): Red
Colour ([1]; E. coli 260505Q, agar): −
Colour ([1]; E. coli 260506E, agar): Red
Colour ([1]; E. coli 260508Y, agar): Red
Colour ([1]; E. coli 260509W, agar): Red
Colour ([1]; E. coli 260510R, agar): Red
Colour ([1]; E. coli 260511X, agar): Red
Colour ([1]; E. coli 260514G, agar): −
Colour ([1]; E. coli 260515Z, agar): Red
Colour ([1]; E. coli 260521S, agar): Red
Colour ([1]; E. coli 260522Z, agar): Red
Colour ([1]; E. coli 260532S, agar): Red
Colour ([1]; E. coli 260533G, agar): Red
Colour ([1]; E. coli 260536Q, agar): Red
Colour ([1]; E. coli 260537E, agar): −
Colour ([1]; E. coli 260538H, agar): −
Colour ([1]; E. coli 260539Y, agar): Red
Colour ([1]; E. coli 260541R, agar): Red
Colour ([1]; E. coli 260545G, agar): Red
Colour ([1]; E. coli 260547N, agar): Red
Colour ([1]; E. coli 260548Q, agar): Red
Colour ([1]; E. coli 260549E, agar): Red
Colour ([1]; E. coli 260553X, agar): −
Colour ([1]; E. coli 260554D, agar): Red
Colour ([1]; E. coli 260555L, agar): Red
Colour ([1]; E. coli 260563B, agar): Red
Colour ([1]; E. coli 260564R, agar): Red
Colour ([1]; E. coli 260578D, agar): −
Colour ([1]; E. coli 2603121P, agar): −
Colour (E. cloacae; E. cloacae 260329R, agar): −
Colour (E. cloacae; E. cloacae NCTC 11936, agar): −
Colour (E. faecium NCTC 7171): −
Colour (E. faecalis NCTC 775): −
